Experimental data as given in patent publication US20210254056A1, “IDENTIFICATION AND TARGETED MODULATION OF GENE SIGNALING NETWORKS” (CAMP4 THERAPEUTICS CORPORATION, priority 2017, published 2021).

Test system: hepatocytes
Assay: RNA-seq of hepatocytes treated with Phase III failure compounds
Procedure: RNA-seq was performed to determine the effects of the compounds on hepatocytes.
Significance was determined by the criteria of FPKM≥0.5, a log 2(fold-change)≥1, and a […].

[1] = RNA-seq, hepatocytes, gene named in the value

Structure (SMILES): CCN(CC)CCN(Cc1ccc(-c2ccc(C(F)(F)F)cc2)cc1)C(=O)Cn1c(SCc2ccc(F)cc2)nc(=O)c2c1CCC2 [Darapladib]
- RNA-seq results, CYP2B6 expression: −0.12
- RNA-seq results, CYP2C19 expression: −0.01
- RNA-seq results, CYP2D6 expression: −0.21
- RNA-seq results, CYP3A4 expression: −0.47
- RNA-seq results, CYP7B1 expression: −0.03
- RNA-seq results, CYP39A1 expression: −0.23
- RNA-seq results: CYP2B6 expression: 0.25
- RNA-seq results: CYP2C19 expression: 0.54
- RNA-seq results: CYP2D6 expression: −0.06
- RNA-seq results: CYP3A4 expression: 0.07
- RNA-seq results: CYP7B1 expression: −0.46
- RNA-seq results: CYP39A1 expression: −0.07
- significant modulation of expression of disease genes (RNA-seq, q≤0.05, hepatocytes, genes in the value or listed in the block): significantly (q≤0.05) modulate expression
- genes down-regulated by the compound [1]: ANGPTL3 was observed to be down-regulated
- genes up-regulated by the compound [1]: up-regulated genes: LDLR, PCSK9, and HMGCR
- RNA-seq results: A1BG expression (gene A1BG, hepatocytes): 0.01
- RNA-seq results: AGTR1 expression (gene AGTR1, hepatocytes): −0.18
- RNA-seq results: AGXT expression (gene AGXT, hepatocytes): −0.38
- RNA-seq results: AHI1 expression (gene AHI1, hepatocytes): 0.12
- RNA-seq results: AMPD3 expression (gene AMPD3, hepatocytes): 0.42
- RNA-seq results: AMT expression (gene AMT, hepatocytes): −0.35
- RNA-seq results: ANGPTL3 expression (gene ANGPTL3, hepatocytes): −1.20
- RNA-seq results: ANKS4B expression (gene ANKS4B, hepatocytes): −0.52
- RNA-seq results: ANKS6 expression (gene ANKS6, hepatocytes): 0.11
- RNA-seq results: ANPEP expression (gene ANPEP, hepatocytes): 0.11
- RNA-seq results: AOC2 expression (gene AOC2, hepatocytes): 0.28
- RNA-seq results: APOA2 expression (gene APOA2, hepatocytes): −0.33
- RNA-seq results: APOA5 expression (gene APOA5, hepatocytes): −0.19
- RNA-seq results: APOB expression (gene APOB, hepatocytes): 0.54
- RNA-seq results: COG5 expression (gene COG5, hepatocytes): 0.11
- RNA-seq results: COG6 expression (gene COG6, hepatocytes): −0.09
- RNA-seq results: COL1A1 expression (gene COL1A1, hepatocytes): 0.18
- RNA-seq results: COX6A1 expression (gene COX6A1, hepatocytes): −0.08
- RNA-seq results: CP expression (gene CP, hepatocytes): 0.77
- RNA-seq results: CPS1 expression (gene CPS1, hepatocytes): −0.89
- RNA-seq results: CPT1A expression (gene CPT1A, hepatocytes): 0.11
- RNA-seq results: CPT2 expression (gene CPT2, hepatocytes): −0.16
- RNA-seq results: CROT expression (gene CROT, hepatocytes): −0.49
- RNA-seq results: CSPP1 expression (gene CSPP1, hepatocytes): 0.24
- RNA-seq results: CTC1 expression (gene CTC1, hepatocytes): −0.01
- RNA-seq results: CTDSP2 expression (gene CTDSP2, hepatocytes): 0.52
- RNA-seq results: CTH expression (gene CTH, hepatocytes): 1.17
- RNA-seq results: CTNS expression (gene CTNS, hepatocytes): −0.11
- RNA-seq results: CTSF expression (gene CTSF, hepatocytes): 0.25
- RNA-seq results: CTSK expression (gene CTSK, hepatocytes): 0.31
- RNA-seq results: CYB5A expression (gene CYB5A, hepatocytes): −0.12
- RNA-seq results: CYB5R3 expression (gene CYB5R3, hepatocytes): −0.21
- RNA-seq results: CYP27A1 expression (gene CYP27A1, hepatocytes): −0.18
- RNA-seq results: DAO expression (gene DAO, hepatocytes): −1.06
- RNA-seq results: DBT expression (gene DBT, hepatocytes): −0.13
- RNA-seq results: DCDC2 expression (gene DCDC2, hepatocytes): −1.43
- RNA-seq results: DCXR expression (gene DCXR, hepatocytes): −0.74
- RNA-seq results: FABP1 expression (gene FABP1, hepatocytes): 0.07
- RNA-seq results: FADD expression (gene FADD, hepatocytes): −0.45
- RNA-seq results: FAM111A expression (gene FAM111A, hepatocytes): 0.1
- RNA-seq results: FAM111B expression (gene FAM111B, hepatocytes): −2.15
- RNA-seq results: FAN1 expression (gene FAN1, hepatocytes): −0.03
- RNA-seq results: FARS2 expression (gene FARS2, hepatocytes): −0.42
- RNA-seq results: FASLG expression (gene FASLG, hepatocytes): −1.32
- RNA-seq results: FGA expression (gene FGA, hepatocytes): −0.32
- RNA-seq results: FGD1 expression (gene FGD1, hepatocytes): −0.46
- RNA-seq results: FGFR2 expression (gene FGFR2, hepatocytes): −0.13
- RNA-seq results: FIG4 expression (gene FIG4, hepatocytes): −0.07
- RNA-seq results: FIS1 expression (gene FIS1, hepatocytes): −0.35
- RNA-seq results: FTCD expression (gene FTCD, hepatocytes): −0.56
- RNA-seq results: FTH1 expression (gene FTH1, hepatocytes): 0.44
- RNA-seq results: FUCA1 expression (gene FUCA1, hepatocytes): −0.13
- RNA-seq results: FXN expression (gene FXN, hepatocytes): −0.22
- RNA-seq results: G6PC3 expression (gene G6PC3, hepatocytes): −0.52
- RNA-seq results: G6PC expression (gene G6PC, hepatocytes): 0.6
- RNA-seq results: G6PD expression (gene G6PD, hepatocytes): −0.41
- RNA-seq results: GALK1 expression (gene GALK1, hepatocytes): −0.61
- RNA-seq results: GALK2 expression (gene GALK2, hepatocytes): −0.14
- RNA-seq results: GALT expression (gene GALT, hepatocytes): −0.58
- RNA-seq results: GATA6 expression (gene GATA6, hepatocytes): 0
- RNA-seq results: GATM expression (gene GATM, hepatocytes): −0.52
- RNA-seq results: GBA expression (gene GBA, hepatocytes): −0.23
- RNA-seq results: GBE1 expression (gene GBE1, hepatocytes): −0.11
- RNA-seq results: GCH1 expression (gene GCH1, hepatocytes): −0.19
- RNA-seq results: GCKR expression (gene GCKR, hepatocytes): −0.06
- RNA-seq results: GCLC expression (gene GCLC, hepatocytes): −0.02
- RNA-seq results: GOSH expression (gene GOSH, hepatocytes): −1.21
- RNA-seq results: RRM2B (gene RRM2B, hepatocytes): −0.49
- RNA-seq results: RSAD1 (gene RSAD1, hepatocytes): −0.13
- RNA-seq results: SAMHD1 (gene SAMHD1, hepatocytes): −0.48
- RNA-seq results: SC5D (gene SC5D, hepatocytes): 0.37
- RNA-seq results: SCARB1 (gene SCARB1, hepatocytes): −0.07
- RNA-seq results: SCN9A (gene SCN9A, hepatocytes): −0.42
- RNA-seq results: SDCCAG8 (gene SDCCAG8, hepatocytes): −0.06
- RNA-seq results: SEPN1 (gene SEPN1, hepatocytes): −0.10
- RNA-seq results: SERAC1 (gene SERAC1, hepatocytes): −0.02
- RNA-seq results: SERPINA1 (gene SERPINA1, hepatocytes): −0.05
- RNA-seq results: SERPING1 (gene SERPING1, hepatocytes): 0.21
- RNA-seq results: SERPINI1 (gene SERPINI1, hepatocytes): −0.42
- RNA-seq results: SETBP1 (gene SETBP1, hepatocytes): −0.10
- RNA-seq results: SFXN4 (gene SFXN4, hepatocytes): −0.38
- RNA-seq results: SLC10A1 (gene SLC10A1, hepatocytes): −0.68
- RNA-seq results: SLC10A3 (gene SLC10A3, hepatocytes): 0.47
- RNA-seq results: SLC10A5 (gene SLC10A5, hepatocytes): −0.54
- RNA-seq results: SLC10A7 (gene SLC10A7, hepatocytes): −0.22
- RNA-seq results: SLC11A2 (gene SLC11A2, hepatocytes): 0.39
- RNA-seq results: SLC19A1 (gene SLC19A1, hepatocytes): −0.26
- RNA-seq results: SLC19A2 (gene SLC19A2, hepatocytes): 0.54
- RNA-seq results: SLC19A3 (gene SLC19A3, hepatocytes): −0.22
- RNA-seq results: SLC22A1 (gene SLC22A1, hepatocytes): −0.28
- RNA-seq results: SLC22A5 (gene SLC22A5, hepatocytes): −0.23
- RNA-seq results: SLC25A1 (gene SLC25A1, hepatocytes): 0.24
- RNA-seq results: SLC25A10 (gene SLC25A10, hepatocytes): −0.48
- RNA-seq results: SLC25A12 (gene SLC25A12, hepatocytes): −0.22
- RNA-seq results: SLC25A13 (gene SLC25A13, hepatocytes): 0.20
- RNA-seq results: SLC25A15 (gene SLC25A15, hepatocytes): −0.28
- RNA-seq results: SLC25A19 (gene SLC25A19, hepatocytes): 0.03
- RNA-seq results: SLC25A20 (gene SLC25A20, hepatocytes): −0.62
- RNA-seq results: SLC25A29 (gene SLC25A29, hepatocytes): 0.92
- RNA-seq results: SLC25A32 (gene SLC25A32, hepatocytes): −0.21
